Here are results for three molecules from PMC3581469, “Bombesin Analogue-Mediated Delivery Preferentially Enhances the Cytotoxicity of a Mitochondria-Disrupting Peptide in Tumor Cells” (PLoS ONE, 2013).

The subject of data set [1] is DU145 and PC-3 cells. The data set can be described thus: Cytotoxicity assay (CCK-8 cell viability). Particulars: 1 h; for cytotoxicity (in words): increasing concentrations, CCK-8. The class given is cell-based, human. The procedure: (§1) Cells were seeded at a density of 1×10^4 per well in a 96-well plate, were grown overnight and were co-incubated at 37°C for 1 h with increasing concentrations of the peptide in 100 µl RPMI 1640 supplemented with 2% FBS. Subsequently, the peptide solution was replaced by 100 µl fresh medium. To determine cell viability, 10 µl CCK-8 was added to the well, and the cultures were incubated for an additional 2–4 h. The absorbance was then measured at 450 nm (with a reference wavelength at 620 nm), and cell viability was calculated as the percentage of the value relative to the absorbance of the cells incubated without peptide. The IC50 values of the peptides were calculated from the respective cell viability curves. Simultaneously, the LIVE/DEAD BacLight bacterial viability kit was used to visualize the cytotoxicity of the peptides. Combined incubation with SYTO 9 (15 µM) and propidium iodide (PI, 2.5 µg/ml) stained the living cells fluorescent green and the dead cells fluorescent red due to their distinct cell membrane permeability.

Data set [2] relates to DU145 tumor cells. Briefly: Live/Dead staining with SYTO 9 and PI. Conditions: 5 µM, 45 min, SYTO 9/PI. The class given is cell-based, human. The procedure: as §1
Data set [3] has as its system DU145 cells. The data set can be described thus: FITC-Annexin V/PI staining, FACS analysis of apoptosis and necrosis. The data set is classed as cell-based, human. The procedure: Phosphatidylserine exposed on the outer membrane reflects the early stages of apoptosis and can be detected by FITC-Annexin V and PI staining. The cells were detached and washed with medium. One-hundred and fifty thousand cells were suspended in 300 µl of RMPI 1640 supplemented with 10% FBS and treated with the peptide at the indicated concentration and time points. Then, the cells were subjected to dual staining with FITC-Annexin V and PI, according to the manual. The cells were observed under a fluorescence microscope and subjected to FACS analysis. Cells showing Annexin V−/PI-, Annexin V+/PI-, and Annexin V+/PI+ signals are considered to be living, early stage apoptotic, and either late stage apoptotic or necrotic, respectively. To assess DNA damage during apoptosis, the TUNEL assay was performed in accordance with the manufacturer’s instruction. Briefly, after treatment for 30 min-1 h with the peptide, cells were washed twice with PBS, fixed with 4% paraformaldehyde for 10–15 min at room temperature, permeabilized with 0.1% Triton X-100 for 2 min on ice, incubated in the reaction mixture and observed under a fluorescence microscope. FITC labeled nucleotides incorporated into the nuclei reflects DNA degradation. For investigating the activation of caspases, cells were preincubated with the Pan-caspase inhibitor, Z-VAD-FMK (100 µM), for 2 h before peptide treatment in the cytotoxicity assay. Immunofluorescence staining of caspase-3 was performed by using the Alexa Fluor 488-conjugated antibody against human cleaved caspase-3. The activation of caspase-3 was further verified by using a caspase-3 colorimetric assay kit (Genescript, Nanjing, China) with TNF-related apoptosis-inducing ligand (TRAIL) as a positive control. The activity of caspase-3 was presented as fold of peptide-treated cells vs untreated cells.
Background: Flow cytometry measures light scatter and fluorescence of single cells or particles in a stream.

In data set [4] the test system is liver and kidney. Particulars: mouse, in vivo, ip, 15 mg/kg. Here is the method: (§2) All of the protocols used for in vivo experiments were approved by the University Animal Care and Use Committee. Four to six-week-old male BALB/c nu/nu mice were purchased from the University Animal Production Center. Seven million DU145 cells suspended in 200 µl PBS were subcutaneously injected into the left flank region of mice. On day 7–9 post inoculation, the mice were randomized into three groups (n = 5) and intraperitoneally (i.p.) received 15 mg/kg B28Bn(6–14), B28 or an equivalent volume of PBS once daily for 7 consecutive days. Alternatively, the mice intratumorally received 5 mg/kg drug once daily for 5 consecutive days. The tumor volume was calculated as length×width^2×0.5. At the end of i.p. therapy, the animals were sacrificed and the major organs were excised, paraffin-embedded, sectioned, and stained with hematoxylin/eosin (H&E) for the examination of histopathologic architecture. To evaluate the cytotoxicity on tumor cells in vivo, a single dose of 50 µg of peptide in 50 µl of PBS was injected into the tumor graft (200–300 mm^3), according to the method described previously. At 24 h post-injection, the animals were sacrificed, and the tumor tissues were routinely stained with H&E.

Data set [5] has as its system DU145 tumor xenografts. Briefly: DU145 tumor xenograft model in BALB/c nude mice. The class given is in vivo, mouse. The procedure:
as §2

Data set [6] deals with DU145 cells. Briefly: LDH release (Cytotox 96 non-radioactive cytotoxicity assay), necrosis. The class given is cell-based, human. Particulars: 5 µM, 1 h. The procedure: Necrosis was evaluated with the Cytotox 96 non-radioactive cytotoxicity assay kit by detecting the release of lactate dehydrogenase (LDH) from necrotic cells. Ten-thousand cells were plated in a 96-well plate and treated with the peptide in 100 µl of RMPI 1640 supplemented with 2% FBS for 10 min-2 h, followed by LDH detection with 50 µl of culture supernatant from the treated cells, according to the manufacturer’s instruction. The LDH level was presented as the percentage relative to that of cells treated with 0.9% Triton X-100.
On the technique in general: Release of lactate dehydrogenase indicates damage to the cell membrane.

For data set [7], the system named is normal cells (HSF, PrSC, SMC, MRC-5). The class given is cell-based, human. Conditions: 1 h. Here is the method:
as §1

Data set [8] has as its system tumor cells (PC-3, DU145, MCF-7, MDA-MB-435S). The data set is classed as cell-based, human. The procedure:
as §1

In general, IC50 refers to the midpoint of a concentration-inhibition curve.

Where no end group is shown, it is not given here.

Consider `CSCC[C@H](NC(=O)[C@H](CC(C)C)NC(=O)[C@H](Cc1c[nH]cn1)NC(=O)CNC(=O)[C@@H](NC(=O)[C@H](C)NC(=O)[C@H](Cc1c[nH]c2ccccc12)NC(=O)[C@H](CCC(N)=O)NC(=O)[C@@H](N)CC(N)=O)C(C)C)C(N)=O` [Bn(6–14), reference compound], for which the “cytotoxicity (in words)” value in data set [1] is given as “no obvious cytotoxicity”.
Take “GGLRSLGRKILRAWKKYGNQWAVGHLM-NH2 [B28Bn(6–14)]”: the “dead cells (red fluorescence)” value in data set [2] is “over 90%”. The “Annexin V+/PI+ cells (necrotic)” value in data set [3] (2.5 µM, 10 min, 0 µM 0.24) came out at 1.94%; in data set [3] (5 µM, 1 min), 8.84%; in data set [3] (5 µM, 5 min), 16.25%; in data set [3] (5 µM, 10 min), 15.30%; in data set [3] (5 µM, 15 min), 36.88%; in data set [3] (10 µM, 10 min), 29.93%. Further, the “early apoptotic cells (Annexin V+/PI-)” value in data set [3] (2.5 µM, 10 min, 0 µM 3.80) stood at 18.05%; in data set [3] (5 µM, 1 min, 0 min 3.63) it was 36.99%; in data set [3] (5 µM, 5 min), 32.94%; in data set [3] (5 µM, 10 min), 39.19%; in data set [3] (5 µM, 15 min), 35.36%; in data set [3] (10 µM, 10 min) it was 43.18%. For the same molecule, the “histological damage in liver and kidneys” value in data set [4] was “no obvious histological damage”. Also, the mean tumor volume in data set [5] (intraperitoneal 15 mg/kg once daily for 7 days, day 30, n = 5, mean±SD, PBS 421±87) was 179±42 mm^3; in data set [5] (intratumoral 5 mg/kg once daily for 5 days, day 45, n = 5, mean±SD, PBS 1344±286) it was 225±124 mm^3. Also, in data set [6], the “necrotic cells detected by LDH assay (percentage of max release with 0.9% Triton X-100)” value was “less than 10%”. In addition, the IC50 in data set [7] is 10.8 to 16.8 µM; in data set [8] (1 h), 1.7 to 3.5 µM. Further, the “loss of cell viability” value in data set [8] (10 µM, 1 h, CCK-8) is on record as “over 90%”. The “IC50 in tumor cells, times lower than B28” value in data set [8] (IC50 ratio versus unconjugated B28) is “approximately 10 times”.
Take “GGLRSLGRKILRAWKKYGQRLGNQ-NH2 [B28Bn(2–7)]”: the “cytotoxicity / loss of cell viability” value in data set [1] (10 µM peptide, CCK-8, RPMI 1640 with 2% FBS) is given as “less than 40%”. In addition, in data set [1], the “cytotoxicity (in words)” value is recorded as “moderate cytotoxicity”.
